Results from patent US12070500B2, “Use of semaphorin-4D antibodies in combination with an immune modulating therapy to inhibit tumor growth and metastasis” (Vaccinex, Inc., priority 2013, dated 2024).

Columns and labels:
Colon26 tumor cells = experiment: Colon26 tumor growth, combination with cyclophosphamide (Example 8); assay type: in vivo, Balb/c mice; settings: anti-SEMA4D 50 mg/kg IP weekly; cyclophosphamide 50 mg/kg IP days 12 and 20; endpoint 1000 mm3
Protocol: Experimental Design. 5×10^5 Colon26 tumor cells were implanted subcutaneously into the flank of female Balb/c mice. […] There were 20 mice per group. Tumors were measured with calipers 3×/week starting 5 days post implant. Animals were sacrificed when tumor volume reached 1000 mm3.
Tumor growth was measured by calipers and measurements were used to calculate tumor volume using the formula (w^2×l)/2, where w=width, smaller measurement, and l=length, in mm, of the tumor.
Regression is the lack of palpable tumor, defined by a tumor measuring <50 mm3 for at least two consecutive measurements.

Colon26 = experiment: Summary of tumor regressions in Colon26 model (Example 13, FIG. 13); assay type: in vivo, mice; settings: summary of experiments (FIG. 13)
Text: Experimental Design. […] The experiment design of the respective experiments is summarized in the above Examples.

Structure (SMILES): O=P1(N(CCCl)CCCl)NCCCO1 (centres unmarked) [cyclophosphamide]
- Tumor Growth Delay (TGD) (Colon26 tumor cells): 96%
- tumor regression (Colon26): 10%
